Measurements published in US20140135310A1, “SULPHONAMIDE DERIVATIVES OF ALICYCLIC AMINES FOR THE TREATMENT OF CENTRAL NERVOUS SYSTEM DISEASES” (Adamed Sp. z o.o., priority 2011, published 2014).

Assays:
5-HT6 receptor = target: T1, 5-HT6 receptor (Homo sapiens, UniProt P50406); assay: Radioligand binding assay, serotoninergic 5-HT6 receptors; conditions: binding assay result in %, Table 5a;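 also: test compound at 1 µM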
T1 construct: purchased PerkinElmer
From the text: (§1) The specific ligand binding to the receptors is defined as the difference between the total binding and the non-specific binding determined in the presence of the excess of unlabelled ligand.
(§2) The results are expressed as a percent of control specific binding ((measured specific binding/control specific binding)×100) and as a percent inhibition of control specific binding (100−((measured specific binding/control specific binding)×100)) obtained in the presence of the test compounds. The specific ligand binding to the receptors is defined as the difference between the total binding and the nonspecific binding determined in the presence of an excess of unlabelled ligand. Scintillation counting was the method of detection of ligand binding. The IC50 values (concentration causing a half-maximal inhibition of control specific binding) were determined by non-linear regression analysis of the competition curves generated with mean replicate values using Hill equation curve fitting (Y=D+[(A−D)/(1+(C/C50)nH)], where Y=specific binding, D=minimum specific binding, A=maximum specific binding, C=compound concentration, C50=IC50, and nH=slope factor). This analysis was performed using a software developed at Cerep (Hill software) and validated by comparison with data generated by the commercial software SigmaPlot® 4.0 for Windows® (© 1997 by SPSS Inc.). The inhibition constants (Ki) were calculated using the Cheng Prusoff equation (Ki=IC50/(1+(L/KD)), where L=concentration of radioligand in the assay, and KD=affinity of the radioligand for the receptor). A scatchard plot was used to determine the Kd.
(§3) Experimental conditions for tests are given in Table 4, and results of tests for representative compounds of the invention are given in Table 5a and 5b (receptors 5-HT1A, 5-HT2A, 5-HT6 and 5-HT7) and in Table 6 (receptors 5-HT2C).
5-HT6: Bryan L. Roth. Assay Protocol Book. University of North Carolina At Chapel Hill. National Institute of Mental Health. Psychoactive Drug Screening Program. Available on-line at 31 Aug. 2008: http://pdsp.med.unc.edu/UNC-CH %20Protocol%20Book.pdf

[1] = target: T2, serotonin transporter (SERT) (Homo sapiens, UniProt P31645); assay: Radioligand binding assay, serotonin transporter (SERT); conditions: binding assay, test compound 1×10^−6 M
T2 construct: expressed in transfected cells; host or cells: CHO cells
T2 sequence (P31645 whole entry): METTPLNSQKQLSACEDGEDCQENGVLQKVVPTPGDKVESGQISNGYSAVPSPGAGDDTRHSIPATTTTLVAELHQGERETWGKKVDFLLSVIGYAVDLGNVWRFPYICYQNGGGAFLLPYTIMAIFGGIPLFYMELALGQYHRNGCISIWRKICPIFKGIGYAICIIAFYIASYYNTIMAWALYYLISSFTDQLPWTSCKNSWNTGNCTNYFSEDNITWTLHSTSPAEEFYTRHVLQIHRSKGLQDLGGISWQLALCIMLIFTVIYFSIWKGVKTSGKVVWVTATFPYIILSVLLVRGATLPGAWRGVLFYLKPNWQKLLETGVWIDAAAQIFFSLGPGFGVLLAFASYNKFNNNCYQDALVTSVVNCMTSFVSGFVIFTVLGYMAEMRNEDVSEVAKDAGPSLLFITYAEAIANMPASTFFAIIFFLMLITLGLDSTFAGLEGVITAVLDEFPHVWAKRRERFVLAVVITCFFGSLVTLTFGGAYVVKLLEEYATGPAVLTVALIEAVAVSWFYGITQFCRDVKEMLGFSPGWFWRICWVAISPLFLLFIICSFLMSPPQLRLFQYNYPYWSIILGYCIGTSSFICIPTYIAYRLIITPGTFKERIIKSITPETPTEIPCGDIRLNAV
From the text: as §1, §2
Experimental conditions for tests are given in Table 12, and results of tests for representative compounds are given in Tables 13a and 13b.

5-HT7 receptor = target: T3, 5-HT7 receptor (Homo sapiens, UniProt P34969); assay: Radioligand binding assay, serotoninergic 5-HT7 receptors; conditions: binding assay result in %, Table 5a;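 also: test compound at 1 µM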
T3 construct: purchased PerkinElmer
T3 sequence (P34969 whole entry): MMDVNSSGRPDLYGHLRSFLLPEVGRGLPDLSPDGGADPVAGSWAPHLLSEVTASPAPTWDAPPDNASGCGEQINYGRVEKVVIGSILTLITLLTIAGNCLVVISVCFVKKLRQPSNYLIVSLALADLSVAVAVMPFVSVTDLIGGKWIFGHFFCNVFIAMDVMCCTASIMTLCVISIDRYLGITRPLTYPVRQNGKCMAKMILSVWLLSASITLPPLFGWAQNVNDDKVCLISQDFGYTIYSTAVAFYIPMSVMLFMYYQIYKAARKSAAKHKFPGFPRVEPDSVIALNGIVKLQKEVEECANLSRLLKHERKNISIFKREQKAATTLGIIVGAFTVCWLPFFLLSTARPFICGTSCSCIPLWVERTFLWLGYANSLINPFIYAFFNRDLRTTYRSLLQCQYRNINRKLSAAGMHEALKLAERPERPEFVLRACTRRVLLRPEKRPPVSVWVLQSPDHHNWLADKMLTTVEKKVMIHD
From the text: as §1, §2, §3
5-HT7: Bryan L. Roth. Assay Protocol Book. University of North Carolina At Chapel Hill. National Institute of Mental Health. Psychoactive Drug Screening Program. Available on-line at 31 Aug. 2008: http://pdsp.med.unc.edu/UNC-CH %20Protocol%20Book.pdf

[2] = target: dopaminergic receptors D2 (Homo sapiens, UniProt P14416); assay: Radioligand binding assay, dopaminergic D2 receptors; conditions: binding assay, test compound 1×10^−6 M
Chain of dopaminergic receptors D2 (P14416 whole entry): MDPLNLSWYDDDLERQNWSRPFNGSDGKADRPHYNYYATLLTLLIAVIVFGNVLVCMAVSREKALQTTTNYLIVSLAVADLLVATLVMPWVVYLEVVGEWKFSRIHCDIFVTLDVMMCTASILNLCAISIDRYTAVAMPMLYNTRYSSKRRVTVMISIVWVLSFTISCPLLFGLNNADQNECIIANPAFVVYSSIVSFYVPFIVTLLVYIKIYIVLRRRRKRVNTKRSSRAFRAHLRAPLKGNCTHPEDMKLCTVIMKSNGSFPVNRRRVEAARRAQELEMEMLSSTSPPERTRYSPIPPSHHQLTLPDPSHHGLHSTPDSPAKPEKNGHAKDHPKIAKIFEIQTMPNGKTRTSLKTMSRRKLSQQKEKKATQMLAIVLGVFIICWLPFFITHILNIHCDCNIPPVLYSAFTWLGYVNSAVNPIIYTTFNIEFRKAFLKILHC
From the text: as §1, §2
(§4) Experimental conditions for tests are given in Table 1, the results of tests for representative compounds are given in Tables 2a and 2b (receptors D2 and D3) and in Table 3 (receptors D4).

[3] = target: T4, 5-HT1A receptor (rat hippocampus) (Rattus norvegicus, UniProt P19327); assay: Radioligand binding assay, serotoninergic 5-HT1A receptors; conditions: binding assay result in %, Table 5a;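 also: test compound at 1 µM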
T4 construct: hippocampus; from tissue; host or cells: rat hippocampus
T4 sequence (P19327 1-422): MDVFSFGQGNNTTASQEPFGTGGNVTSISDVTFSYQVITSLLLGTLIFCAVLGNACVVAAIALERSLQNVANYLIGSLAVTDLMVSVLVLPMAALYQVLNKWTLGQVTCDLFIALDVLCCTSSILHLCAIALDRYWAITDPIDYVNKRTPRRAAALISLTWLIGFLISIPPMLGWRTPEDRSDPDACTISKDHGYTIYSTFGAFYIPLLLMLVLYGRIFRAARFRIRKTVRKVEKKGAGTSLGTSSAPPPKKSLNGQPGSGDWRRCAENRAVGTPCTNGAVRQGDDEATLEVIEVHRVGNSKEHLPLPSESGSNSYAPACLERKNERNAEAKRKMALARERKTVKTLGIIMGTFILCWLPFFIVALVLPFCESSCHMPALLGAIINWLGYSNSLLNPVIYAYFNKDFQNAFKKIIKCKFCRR
From the text: as §1, §2, §3

5-HT2A receptor = target: T5, 5-HT2A receptor (Homo sapiens, UniProt P28223); assay: Radioligand binding assay, serotoninergic 5-HT2A receptors; conditions: binding assay result in %, Table 5a
T5 construct: purchased PerkinElmer
T5 sequence (P28223 whole entry): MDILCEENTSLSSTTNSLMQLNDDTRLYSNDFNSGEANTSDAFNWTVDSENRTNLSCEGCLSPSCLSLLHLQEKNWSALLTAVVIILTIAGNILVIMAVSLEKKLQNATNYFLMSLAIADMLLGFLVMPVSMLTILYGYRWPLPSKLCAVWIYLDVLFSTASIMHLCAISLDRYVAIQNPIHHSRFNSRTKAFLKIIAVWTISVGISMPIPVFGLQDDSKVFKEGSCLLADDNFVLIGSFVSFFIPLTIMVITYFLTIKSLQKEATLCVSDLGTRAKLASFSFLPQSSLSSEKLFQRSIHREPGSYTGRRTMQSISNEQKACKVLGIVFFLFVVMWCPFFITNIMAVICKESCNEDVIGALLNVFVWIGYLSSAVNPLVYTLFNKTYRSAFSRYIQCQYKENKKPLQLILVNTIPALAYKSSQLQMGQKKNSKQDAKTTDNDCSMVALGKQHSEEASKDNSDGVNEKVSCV
From the text: as §1, §2
5-HT2A: Bryan L. Roth. Assay Protocol Book. University of North Carolina At Chapel Hill. National Institute of Mental Health. Psychoactive Drug Screening Program. Available on-line at 31 Aug. 2008: http://pdsp.med.unc.edu/UNC-CH%20Protocol%20Book.pdf

[4] = target: dopaminergic receptors D3 (Homo sapiens, UniProt P35462); assay: Radioligand binding assay, dopaminergic D3 receptors; conditions: test compound 1×10^−6 M
Chain of dopaminergic receptors D3 (P35462 whole entry): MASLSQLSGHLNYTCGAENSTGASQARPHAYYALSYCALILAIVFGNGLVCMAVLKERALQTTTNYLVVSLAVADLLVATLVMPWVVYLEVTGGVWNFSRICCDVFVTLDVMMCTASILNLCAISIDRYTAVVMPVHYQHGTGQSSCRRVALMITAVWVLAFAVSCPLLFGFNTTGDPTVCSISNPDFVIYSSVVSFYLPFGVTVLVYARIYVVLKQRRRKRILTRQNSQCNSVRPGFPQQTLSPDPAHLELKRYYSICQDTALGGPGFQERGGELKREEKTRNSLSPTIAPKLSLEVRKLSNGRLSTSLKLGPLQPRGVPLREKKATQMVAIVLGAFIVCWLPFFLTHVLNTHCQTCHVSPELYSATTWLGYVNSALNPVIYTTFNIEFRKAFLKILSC
From the text: as §1, §2, §4

T1 sequence (P50406 whole entry): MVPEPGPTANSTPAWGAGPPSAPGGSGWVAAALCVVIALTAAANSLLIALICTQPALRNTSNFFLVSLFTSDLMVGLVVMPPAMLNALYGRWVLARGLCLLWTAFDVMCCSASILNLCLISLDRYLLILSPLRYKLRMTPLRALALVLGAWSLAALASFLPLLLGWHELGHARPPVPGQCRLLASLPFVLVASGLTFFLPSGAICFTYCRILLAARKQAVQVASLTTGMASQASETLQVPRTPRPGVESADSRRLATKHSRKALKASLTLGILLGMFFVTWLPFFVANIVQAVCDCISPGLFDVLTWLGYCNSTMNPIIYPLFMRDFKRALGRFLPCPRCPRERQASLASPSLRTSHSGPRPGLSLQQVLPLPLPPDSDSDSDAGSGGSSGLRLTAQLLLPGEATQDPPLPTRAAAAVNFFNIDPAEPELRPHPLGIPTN

Molecule	inhibition at 1 µM (5-HT6 receptor) [%]	inhibition at 1 µM [1] [%]	inhibition at 1 µM (5-HT7 receptor) [%]	inhibition at 1 µM [2] [%]	inhibition at 1 µM [3] [%]	inhibition at 1 µM (5-HT2A receptor) [%]	inhibition at 1 µM [4] [%]	5-HT6 [%] (5-HT6 receptor)	SERT [%] [1] [%]	5-HT7 [%] (5-HT7 receptor)	D2 [%] [2] [%]	5-HT1A [%] [3] [%]	5-HT2A [%] (5-HT2A receptor)	D3 [%] [4] [%]
CCCc1ccc(S(=O)(=O)NCC2CN(CCCc3noc4cc(F)ccc34)C2)cc1 [Compound 157, N-[[1-[3-(6-Fluoro-1,2-benzoxazol-3-yl)propyl]azetidin-3-yl]methyl]-4-propyl-benzenesulphonamide]	80	25	93	81	61	95	72							
O=S(=O)(NCC1CN(CCCc2noc3cc(F)ccc23)C1)c1ccc(Cl)cc1 [Compound 136, 4-Chloro-N-[[1-[3-(6-fluoro-1,2-benzoxazol-3-yl)propyl]azetidin-3-yl]methyl]benzenesulphonamide]	72	9	80	62	35	82	57							
O=S(=O)(NCC1CN(CCCc2noc3cc(F)ccc23)C1)c1cccc(O)c1 [Compound 149, N-[[1-[3-(6-Fluoro-1,2-benzoxazol-3-yl)propyl]azetidin-3-yl]methyl]-3-hydroxy-benzenesulphonamide]	71	22	113	91	82	96	39							
3-tert-Butyl-N-[[1-[3-(6-fluoro-1,2-benzoxazol-3-yl)propyl]pyrrolidin-3-yl]methyl]benzenesulphonamide [Compound 249]								58	28	87	4	23	79	36
Cn1ccc2c(S(=O)(=O)NC3CCN(CCCc4noc5cc(F)ccc45)CC3)cccc21 [Compound 329, N-[1-[3-(6-Fluoro-1,2-benzoxazol-3-yl)propyl]-4-piperidyl]-1-methyl-indole-4-sulphonamide]	62	43	97	84	49	94	68							
O=S(=O)(NCC1CCN(CCCc2noc3cc(F)ccc23)C1)c1ccccc1 (stereo not drawn) [Compound 245, N-[[1-[3-(6-Fluoro-1,2-benzoxazol-3-yl)propyl]pyrrolidin-3-yl]methyl]benzenesulphonamide]	57	18	81	-4	35	73	40							
O=S(=O)(NCC1CCN(CCCc2noc3cc(F)ccc23)C1)c1ccc(F)cc1 (stereo not drawn) [Compound 252, 4-Fluoro-N-[[1-[3-(6-fluoro-1,2-benzoxazol-3-yl)propyl]pyrrolidin-3-yl]methyl]benzenesulphonamide]	75	-2	90	36	44	89	43							
O=S(=O)(NCC1CN(CCCc2noc3cc(F)ccc23)C1)c1ccc(Cl)s1 [Compound 155, 5-Chloro-N-[[1-[3-(6-fluoro-1,2-benzoxazol-3-yl)propyl]azetidin-3-yl]methyl]thiophene-2-sulphonamide]	62	-12	82	61	42	89	68							
Cc1cccc(S(=O)(=O)NC2CCN(CCCc3noc4cc(F)ccc34)CC2)c1 [Compound 33, N-[1-[3-(6-Fluoro-1,2-benzoxazol-3-yl)propyl]-4-piperidine]-3-methyl-benzenesulphonamide]								91	−4	100	54	22	97	58
O=S(=O)(NC1CCN(CCCc2noc3cc(F)ccc23)C1)c1ccc(Cl)cc1 (stereo not drawn) [Compound 208, 4-Chloro-N-[1-[3-(6-fluoro-1,2-benzoxazol-3-yl)propyl]pyrrolidin-3-yl]benzenesulphonamide]	87	-2	96	90	9	100	49							
Cc1cc(S(=O)(=O)NCC2CCN(CCCc3noc4cc(F)ccc34)C2)c(C)s1 (stereo not drawn) [Compound 262, N-[[1-[3-(6-Fluoro-1,2-benzoxazol-3-yl)propyl]pyrrolidin-3-yl]methyl]-2,5-dimethyl-thiophene-3-sulphonamide]	69	26	92	26	25	85	44							
CC(C)(C)c1ccc(S(=O)(=O)NC2CCN(CCCc3noc4cc(F)ccc34)CC2)cc1 [Compound 328, 4-tert-Butyl-N-[1-[3-(6-fluoro-1,2-benzoxazol-3-yl)propyl]-4-piperidyl]benzenesulphonamide]	94	25	90	64	49	96	40							
COc1ccc(S(=O)(=O)NC2CCN(CCCc3noc4cc(F)ccc34)C2)cc1 (stereo not drawn) [Compound 213, N-[1-[3-(6-Fluoro-1,2-benzoxazol-3-yl)propyl]pyrrolidin-3-yl]-4-methoxybenzenesulphonamide]	78	12	93	81	63	100	57							
O=S(=O)(NCC1CN(CCCc2noc3cc(F)ccc23)C1)c1cccc(Cl)c1 [Compound 137, 3-Chloro-N-[[1-[3-(6-fluoro-1,2-benzoxazol-3-yl)propyl]azetidin-3-yl]methyl]benzenesulphonamide]	14	-5	82	76	14	62	50							
CC(C)(C)c1ccc(S(=O)(=O)NCC2CN(CCCc3noc4cc(F)ccc34)C2)cc1 [Compound 141, 4-tert-Butyl-N-[[1-[3-(6-fluoro-1,2-benzoxazol-3-yl)propyl]azetidin-3-yl]methyl]benzenesulphonamide]	92	-10	80	74	9	85	58							
